In publication PMC9610943, “Truncated Pleurocidin Derivative with High Pepsin Hydrolysis Resistance to Combat Multidrug-Resistant Pathogens” (Pharmaceutics, 2022):
Where no end group is shown, it is not given here.

Columns and labels:
[1] = system: P. cibarius HNCF44W (blaNDM-1+ tet(X6)); test: organism not typed; assay type: cell-based
Description: (§1) S. aureus ATCC 29213, E. coli ATCC 25922, S. enteritidis ATCC 13076 and A. baumannii ATCC 19609 were obtained from the American Type Culture Collection (ATCC). The remaining strains used in the experiment were all preserved strains in our laboratory. All strains were cultured in nutrient broth overnight to the logarithmic phase at 37 °C prior to each experiment.
(§2) The MICs of all drugs were determined by micro-broth dilution method according to CLSI 2018 guidelines. Briefly, a single colony of the bacterial strain was transferred to 1 mL of Mueller Hilton broth (MHB) and overnight at 37 °C and then 10 μL were cultured in a new 1 mL medium for 4 to 6 h, and then the bacterial culture at the logarithmic phase was diluted to 1 × 10^6 CFUs/mL. The assay was performed by adding 100 μL of each peptide solution at various concentrations (0.25 to 128 μg/mL) and 100 μL of diluted bacterial culture to different wells of a 96-well microtiter plate (Corning, NY, USA). After incubation at 37 °C for 16 to 18 h and then read its MIC value. MIC value is defined as the lowest drug concentration without visible bacteria.

E. coli B2 = assay type: cell-based
Description: as §2
(§3) Then, the antibacterial activity of the peptides affected by different temperatures and pH were determined according to the determination steps of MICs test.
(§4) In MHB medium, Na^+, K^+, Mg^2+ and Ca^2+ with the final concentrations of 10 mM, fetal bovine serum, plasma or DMEM medium (Hyclone, Logan, UT, USA) with the final concentrations of 10% was added, and then MIC values were measured to evaluate the effects of different cations, serum and plasma on the antibacterial activity of peptides.
(§5) The peptide was incubated with protease (pepsin, trypsin and papain) (Solarbio, Beijing, China) with a final concentration of 1 mg/mL at 37 °C for 1 h, then the mixture of peptide and protease was heated at 100 °C for 30 min, then centrifuged at 13,000× g for 30 min, and the supernatant was taken for MIC determination.

E. coli ATCC 25922 = test: microbe, parasite or virus in culture; assay type: cell-based; details: ATCC 25922
Description: as §1, §2

[2] = system: E. faecalis A4 (VRE, VanA); test: microbe, parasite or virus in culture; assay type: cell-based; details: A4 (VRE, VanA)
Description: as §1, §2

[3] = system: E. coli B2 (blaNDM-5 + mcr-1); test: microbe, parasite or virus in culture; assay type: cell-based; details: B2 (blaNDM-5 + mcr-1)
Description: as §1, §2

S. aureus G16 (RIF^R) = test: microbe, parasite or virus in culture; assay type: cell-based; details: S. aureus G16 (RIF^R); micro-broth dilution CLSI 2018, MHB, 37 °C, 16 to 18 h
Description: as §1, §2

E. coli B3-1 (tet(X4)) = test: microbe, parasite or virus in culture; assay type: cell-based; details: B3-1 (tet(X4))
Description: as §1, §2

E. coli 1F28 (tet(X4)) = test: microbe, parasite or virus in culture; assay type: cell-based; details: 1F28 (tet(X4))
Description: as §1, §2

E. coli CP131 (mcr-3) = test: microbe, parasite or virus in culture; assay type: cell-based; details: CP131 (mcr-3)
Description: as §1, §2

S. aureus ATCC 29213 = test: microbe, parasite or virus in culture; assay type: cell-based; details: ATCC 29213
Description: as §1, §2

[4] = system: S. aureus 215 (cfr + LZD^R); test: microbe, parasite or virus in culture; assay type: cell-based; details: S. aureus 215 (cfr + LZD^R); micro-broth dilution CLSI 2018, MHB, 37 °C, 16 to 18 h
Description: as §1, §2

E. coli G6 (blaNDM-5) = test: microbe, parasite or virus in culture; assay type: cell-based; details: G6 (blaNDM-5)
Description: as §1, §2

P. aeruginosa PA14 = test: microbe, parasite or virus in culture; assay type: cell-based; details: PA14
Description: as §1, §2

[5] = system: S. enteritidis ATCC 13076; test: microbe, parasite or virus in culture; assay type: cell-based; details: ATCC 13076
Description: as §1, §2

E. coli G92 (mcr-1) = test: microbe, parasite or virus in culture; assay type: cell-based; details: G92 (mcr-1)
Description: as §1, §2

E. coli C3 (blaNDM-1) = test: microbe, parasite or virus in culture; assay type: cell-based; details: C3 (blaNDM-1)
Description: as §1, §2

[6] = system: P. aeruginosa (VIM + tmexCD1-torJ1); test: microbe, parasite or virus in culture; assay type: cell-based; details: VIM + tmexCD1-torJ1
Description: as §1, §2

A. baumannii ATCC 19609 = test: microbe, parasite or virus in culture; assay type: cell-based; details: ATCC 19609
Description: as §1, §2

MRSA 1530 = test: microbe, parasite or virus in culture; assay type: cell-based, Staphylococcus aureus; details: 1530
Description: as §1, §2

MRSA T144 [7] = test: microbe, parasite or virus in culture; assay type: cell-based, Staphylococcus aureus; details: T144
Description: as §1, §2

MRSA T144 [8] = assay type: cell-based, Staphylococcus aureus
Description: as §2, §3, §4, §5

GWKKFFKKWKHVWK [GK-4]
MIC [1]: 4 µg/mL | MIC after treatment at 121 °C (E. coli B2; B2): 2 µg/mL | MIC in DMEM (10%) (E. coli B2; B2): 4 µg/mL | MIC in Plasma (10%) (E. coli B2; B2): 2 µg/mL | MIC in Serum (10%) (E. coli B2; B2): 4 µg/mL | MIC in presence of Ca^2+ (E. coli B2; B2): >128 µg/mL | MIC in presence of K^+ (E. coli B2; B2): 2 µg/mL | MIC in presence of Mg^2+ (E. coli B2; B2): 32 µg/mL | MIC in presence of Na^+ (E. coli B2; B2): 2 µg/mL | MIC, Control (E. coli B2; B2): 2 µg/mL | MIC after Papain treatment (E. coli B2; B2, 1 h): >128 µg/mL | MIC after Pepsin treatment (E. coli B2; B2, 1 h): 2 µg/mL | MIC after Trypsin treatment (E. coli B2; B2, 1 h): >128 µg/mL | MIC after treatment at 40 °C (E. coli B2; B2, 1 h): 2 µg/mL | MIC after treatment at 60 °C (E. coli B2; B2, 1 h): 2 µg/mL | MIC after treatment at 80 °C (E. coli B2; B2, 1 h): 2 µg/mL | MIC after treatment at 100 °C (E. coli B2; B2, 1 h): 2 µg/mL | MIC after treatment at pH 2 (E. coli B2; B2, 1 h, pH 2): 1 µg/mL | MIC after treatment at pH 4 (E. coli B2; B2, 1 h, pH 4): 1 µg/mL | MIC after treatment at pH 6 (E. coli B2; B2, 1 h, pH 6): 2 µg/mL | MIC after treatment at pH 8 (E. coli B2; B2, 1 h, pH 8): 1 µg/mL | MIC after treatment at pH 10 (E. coli B2; B2, 1 h, pH 10): 1 µg/mL | MIC after treatment at pH 12 (E. coli B2; B2, 1 h, pH 12): 2 µg/mL | MIC (E. coli ATCC 25922): 8 µg/mL | MIC [2]: 16 µg/mL | MIC [3]: 2 µg/mL | MIC (S. aureus G16 (RIF^R)): 8 µg/mL | MIC (E. coli B3-1 (tet(X4))): 4 µg/mL | MIC (E. coli 1F28 (tet(X4))): 16 µg/mL | MIC (E. coli CP131 (mcr-3)): 2 µg/mL | MIC (S. aureus ATCC 29213): 4 µg/mL | MIC [4]: 8 µg/mL | MIC (E. coli G6 (blaNDM-5)): 4 µg/mL | MIC (P. aeruginosa PA14): 16 µg/mL | MIC [5]: 4 µg/mL | MIC (E. coli G92 (mcr-1)): 4 µg/mL | MIC (E. coli C3 (blaNDM-1)): 2 µg/mL | MIC [6]: 16 µg/mL | MIC (A. baumannii ATCC 19609): 4 µg/mL | MIC (MRSA 1530): 16 µg/mL | MIC (MRSA T144 [7]): 4 µg/mL | MIC after treatment at 121 °C (MRSA T144 [8]; T144): 4 µg/mL | MIC in DMEM (10%) (MRSA T144 [8]; T144): 2 µg/mL | MIC in Plasma (10%) (MRSA T144 [8]; T144): 4 µg/mL | MIC in Serum (10%) (MRSA T144 [8]; T144): 8 µg/mL | MIC in presence of Ca^2+ (MRSA T144 [8]; T144): >128 µg/mL | MIC in presence of K^+ (MRSA T144 [8]; T144): 4 µg/mL | MIC in presence of Mg^2+ (MRSA T144 [8]; T144): 8 µg/mL | MIC in presence of Na^+ (MRSA T144 [8]; T144): 2 µg/mL | MIC, Control (MRSA T144 [8]; T144): 4 µg/mL | MIC after Papain treatment (MRSA T144 [8]; T144, 1 h): >128 µg/mL | MIC after Trypsin treatment (MRSA T144 [8]; T144, 1 h): >128 µg/mL | MIC after treatment at 40 °C (MRSA T144 [8]; T144, 1 h): 2 µg/mL | MIC after treatment at 60 °C (MRSA T144 [8]; T144, 1 h): 2 µg/mL | MIC after treatment at 80 °C (MRSA T144 [8]; T144, 1 h): 2 µg/mL | MIC after treatment at 100 °C (MRSA T144 [8]; T144, 1 h): 4 µg/mL | MIC after treatment at pH 2 (MRSA T144 [8]; T144, 1 h, pH 2): 4 µg/mL | MIC after treatment at pH 4 (MRSA T144 [8]; T144, 1 h, pH 4): 4 µg/mL | MIC after treatment at pH 6 (MRSA T144 [8]; T144, 1 h, pH 6): 4 µg/mL | MIC after treatment at pH 8 (MRSA T144 [8]; T144, 1 h, pH 8): 4 µg/mL | MIC after treatment at pH 10 (MRSA T144 [8]; T144, 1 h, pH 10): 4 µg/mL | MIC after treatment at pH 12 (MRSA T144 [8]; T144, 1 h, pH 12): 4 µg/mL
